{
  "source": "PubChem BioAssay (NCI)",
  "test_in_all_cases": "NCI tumour cell line growth inhibition, 48 h",
  "key": {"NCI-H522 lung": {"test_system": "NCI-H522 lung"}, "HT29 colon": {"test_system": "HT29 colon"}, "CCRF-CEM leukemia": {"test_system": "CCRF-CEM leukemia"}, "LOX IMVI melanoma": {"test_system": "LOX IMVI melanoma"}, "SR leukemia": {"test_system": "SR leukemia"}, "SW-620 colon": {"test_system": "SW-620 colon"}, "T-47D breast": {"test_system": "T-47D breast"}, "HOP-92 NSCLC": {"test_system": "HOP-92 NSCLC"}, "MDA-MB-435": {"test_system": "MDA-MB-435"}, "OVCAR-4 ovarian": {"test_system": "OVCAR-4 ovarian"}, "MALME-3M melanoma": {"test_system": "MALME-3M melanoma"}, "DU-145 prostate": {"test_system": "DU-145 prostate"}, "UACC-257 melanoma": {"test_system": "UACC-257 melanoma"}, "COLO 205 colon": {"test_system": "COLO 205 colon"}, "MDA-MB-231 breast": {"test_system": "MDA-MB-231 breast"}, "BT-549 breast": {"test_system": "BT-549 breast"}, "SK-MEL-2 melanoma": {"test_system": "SK-MEL-2 melanoma"}, "M14 melanoma": {"test_system": "M14 melanoma"}, "NCI-H460 lung": {"test_system": "NCI-H460 lung"}, "SNB-75 CNS": {"test_system": "SNB-75 CNS"}, "OVCAR-5 ovarian": {"test_system": "OVCAR-5 ovarian"}, "HCT-15 colon": {"test_system": "HCT-15 colon"}, "EKVX NSCLC": {"test_system": "EKVX NSCLC"}, "MOLT-4 leukemia": {"test_system": "MOLT-4 leukemia"}, "HS 578T breast": {"test_system": "HS 578T breast"}, "HCC-2998 colon": {"test_system": "HCC-2998 colon"}, "TK-10 renal": {"test_system": "TK-10 renal"}, "SF-295 CNS": {"test_system": "SF-295 CNS"}, "HCT-116 colon": {"test_system": "HCT-116 colon"}, "SK-OV-3 ovarian": {"test_system": "SK-OV-3 ovarian"}, "KM12 colon": {"test_system": "KM12 colon"}, "OVCAR-8 ovarian": {"test_system": "OVCAR-8 ovarian"}, "SK-MEL-5 melanoma": {"test_system": "SK-MEL-5 melanoma"}, "SN12C renal": {"test_system": "SN12C renal"}, "U251 CNS": {"test_system": "U251 CNS"}, "SK-MEL-28 melanoma": {"test_system": "SK-MEL-28 melanoma"}, "PC-3 prostate": {"test_system": "PC-3 prostate"}, "MCF7 breast": {"test_system": "MCF7 breast"}, "MDA-N": {"test_system": "MDA-N"}, "RPMI-8226 leukemia": {"test_system": "RPMI-8226 leukemia"}, "UO-31 renal": {"test_system": "UO-31 renal"}, "HL-60(TB) leukemia": {"test_system": "HL-60(TB) leukemia"}, "NCI-H226 lung": {"test_system": "NCI-H226 lung"}, "IGROV1 ovarian": {"test_system": "IGROV1 ovarian"}, "K-562 leukemia": {"test_system": "K-562 leukemia"}, "UACC-62 melanoma": {"test_system": "UACC-62 melanoma"}, "ACHN renal": {"test_system": "ACHN renal"}, "SF-539 CNS": {"test_system": "SF-539 CNS"}, "OVCAR-3 ovarian": {"test_system": "OVCAR-3 ovarian"}, "SF-268 CNS": {"test_system": "SF-268 CNS"}, "NCI/ADR-RES ovarian": {"test_system": "NCI/ADR-RES ovarian"}, "786-0 renal": {"test_system": "786-0 renal"}, "SNB-19 CNS": {"test_system": "SNB-19 CNS"}, "NCI-H23 lung": {"test_system": "NCI-H23 lung"}, "RXF 393 renal": {"test_system": "RXF 393 renal"}, "A549 NSCLC": {"test_system": "A549 NSCLC"}, "CAKI-1 renal": {"test_system": "CAKI-1 renal"}},
  "note": "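Assay format: 96-well plates, 48-hour exposure. The concentration for full growth arrest is given as TGI.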",
  "data": [
    {"smiles": "Oc1ccc(O)c(CNc2ccccc2)c1", "values": [
      {"measurement": "TGI", "setting": "NCI-H522 lung", "result": 6.65, "unit": "µM"},
      {"measurement": "TGI", "setting": "HT29 colon", "result": "> 100", "unit": "µM"},
      {"measurement": "TGI", "setting": "CCRF-CEM leukemia", "result": "> 100", "unit": "µM"},
      {"measurement": "TGI", "setting": "LOX IMVI melanoma", "result": 28.1, "unit": "µM"},
      {"measurement": "TGI", "setting": "SR leukemia", "result": 75.2, "unit": "µM"},
      {"measurement": "TGI", "setting": "SW-620 colon", "result": "> 100", "unit": "µM"},
      {"measurement": "TGI", "setting": "T-47D breast", "result": 37.9, "unit": "µM"},
      {"measurement": "TGI", "setting": "HOP-92 NSCLC", "result": 20.8, "unit": "µM"},
      {"measurement": "TGI", "setting": "MDA-MB-435", "result": 29.4, "unit": "µM"},
      {"measurement": "TGI", "setting": "OVCAR-4 ovarian", "result": 28.6, "unit": "µM"},
      {"measurement": "TGI", "setting": "MALME-3M melanoma", "result": 31.9, "unit": "µM"},
      {"measurement": "TGI", "setting": "DU-145 prostate", "result": 32.2, "unit": "µM"},
      {"measurement": "TGI", "setting": "UACC-257 melanoma", "result": 39.4, "unit": "µM"},
      {"measurement": "TGI", "setting": "COLO 205 colon", "result": 37.4, "unit": "µM"},
      {"measurement": "TGI", "setting": "MDA-MB-231 breast", "result": 38.4, "unit": "µM"},
      {"measurement": "TGI", "setting": "BT-549 breast", "result": 24.3, "unit": "µM"},
      {"measurement": "TGI", "setting": "SK-MEL-2 melanoma", "result": 82.2, "unit": "µM"},
      {"measurement": "TGI", "setting": "M14 melanoma", "result": 33.7, "unit": "µM"},
      {"measurement": "TGI", "setting": "NCI-H460 lung", "result": 47, "unit": "µM"},
      {"measurement": "TGI", "setting": "SNB-75 CNS", "result": "> 100", "unit": "µM"},
      {"measurement": "TGI", "setting": "OVCAR-5 ovarian", "result": 41.7, "unit": "µM"},
      {"measurement": "TGI", "setting": "HCT-15 colon", "result": 42.2, "unit": "µM"},
      {"measurement": "TGI", "setting": "EKVX NSCLC", "result": 43.4, "unit": "µM"},
      {"measurement": "TGI", "setting": "MOLT-4 leukemia", "result": "> 100", "unit": "µM"},
      {"measurement": "TGI", "setting": "HS 578T breast", "result": "> 100", "unit": "µM"},
      {"measurement": "TGI", "setting": "HCC-2998 colon", "result": 67.7, "unit": "µM"},
      {"measurement": "TGI", "setting": "TK-10 renal", "result": 39.1, "unit": "µM"},
      {"measurement": "TGI", "setting": "SF-295 CNS", "result": 29.7, "unit": "µM"},
      {"measurement": "TGI", "setting": "HCT-116 colon", "result": 23.9, "unit": "µM"},
      {"measurement": "TGI", "setting": "SK-OV-3 ovarian", "result": 38.9, "unit": "µM"},
      {"measurement": "TGI", "setting": "KM12 colon", "result": 42.1, "unit": "µM"},
      {"measurement": "TGI", "setting": "OVCAR-8 ovarian", "result": 36.4, "unit": "µM"},
      {"measurement": "TGI", "setting": "SK-MEL-5 melanoma", "result": 33.9, "unit": "µM"},
      {"measurement": "TGI", "setting": "SN12C renal", "result": 29.2, "unit": "µM"},
      {"measurement": "TGI", "setting": "U251 CNS", "result": 44.2, "unit": "µM"},
      {"measurement": "TGI", "setting": "SK-MEL-28 melanoma", "result": "> 100", "unit": "µM"},
      {"measurement": "TGI", "setting": "PC-3 prostate", "result": 30, "unit": "µM"},
      {"measurement": "TGI", "setting": "MCF7 breast", "result": 57.7, "unit": "µM"},
      {"measurement": "TGI", "setting": "MDA-N", "result": 16.6, "unit": "µM"},
      {"measurement": "TGI", "setting": "RPMI-8226 leukemia", "result": 3.14, "unit": "µM"},
      {"measurement": "TGI", "setting": "UO-31 renal", "result": 27, "unit": "µM"},
      {"measurement": "TGI", "setting": "HL-60(TB) leukemia", "result": 12.8, "unit": "µM"},
      {"measurement": "TGI", "setting": "NCI-H226 lung", "result": 78.4, "unit": "µM"},
      {"measurement": "TGI", "setting": "IGROV1 ovarian", "result": 33.4, "unit": "µM"},
      {"measurement": "TGI", "setting": "K-562 leukemia", "result": "> 100", "unit": "µM"},
      {"measurement": "TGI", "setting": "UACC-62 melanoma", "result": 30.6, "unit": "µM"},
      {"measurement": "TGI", "setting": "ACHN renal", "result": 25.5, "unit": "µM"},
      {"measurement": "TGI", "setting": "SF-539 CNS", "result": 15.2, "unit": "µM"},
      {"measurement": "TGI", "setting": "OVCAR-3 ovarian", "result": 19.3, "unit": "µM"},
      {"measurement": "TGI", "setting": "SF-268 CNS", "result": "> 100", "unit": "µM"},
      {"measurement": "TGI", "setting": "NCI/ADR-RES ovarian", "result": "> 100", "unit": "µM"},
      {"measurement": "TGI", "setting": "786-0 renal", "result": 26.1, "unit": "µM"},
      {"measurement": "TGI", "setting": "SNB-19 CNS", "result": 45.1, "unit": "µM"},
      {"measurement": "TGI", "setting": "NCI-H23 lung", "result": 32.4, "unit": "µM"},
      {"measurement": "TGI", "setting": "RXF 393 renal", "result": 19.5, "unit": "µM"},
      {"measurement": "TGI", "setting": "A549 NSCLC", "result": "> 100", "unit": "µM"},
      {"measurement": "TGI", "setting": "CAKI-1 renal", "result": 23.1, "unit": "µM"}
    ]}
  ]
}
